Experimental data: patent publication US10456404B2, “Targeting cGMP-related phosphodiesterases to reduce cyst formation in cystic kidney disease, and related materials and methods” (Indiana University Research and Technology Corporation, priority 2015, dated 2019)
Like-named read-outs stand apart in the source and are kept apart here.

How the values were obtained:
human PDE9 = human PDE9 (Homo sapiens, UniProt O76083); conditions: cited from earlier work
other PDEs = conditions: cited from earlier work
PDE5 = PDE5 (Homo sapiens, UniProt O76074); conditions: cited from earlier work
cGMP = conditions: in vivo; cited from earlier work
[1] = system: preclinical cognition models; conditions: in vivo; cited from earlier work
[2] = system: amyloid precursor protein overexpressing transgenic mice; conditions: cited from earlier work
PDE6 = conditions: cited from earlier work
[3] = system: Telomerase immortalized polycystic kidney cells; assay: cyst formation by immortalized polycystic kidney cells in 3D forskolin-supplemented Matrigel culture; type: cell-based, human
Description: Telomerase immortalized polycystic kidney cells, as described in Herbert et al. (PLoS One (2013), 8(1): e55191; which is hereby incorporated by reference in its entirety), were used to test the effect of sildenafil citrate on renal cyst growth. Cells from polycystic kidneys removed from patients for medically indicated reasons, removed from any research program, were obtained. The cells were obtained from the pathology laboratory. Cyst tissue was microdissected from the kidneys, and cells were isolated and grown in primary culture. The cells were then immortalized using retroviral techniques well known in the art. Following confirmation of an immortal phenotype, it was established that the polycystic cyst epithelial cells formed cyst structures when grown in 3D forskolin-supplemented Matrigel culture. Immortalized polycystic kidney cells were treated with microgram dosages of sildenafil citrate of 4 μg/ml, 2 μg/ml, and 1 μg/ml. […] Matched controls were sham-treated with vehicle but no drug. […] Dosages tested were consistent with the range of serum drug levels that occur when the drug is prescribed for erectile dysfunction.

[4] = system: Telomerase immortalized polycystic kidney cells; assay: as above; type: cell-based, human; conditions: for average cyst area vs vehicle sham-treated matched control: FIG. 1

Chain of human PDE9 (O76083 whole entry): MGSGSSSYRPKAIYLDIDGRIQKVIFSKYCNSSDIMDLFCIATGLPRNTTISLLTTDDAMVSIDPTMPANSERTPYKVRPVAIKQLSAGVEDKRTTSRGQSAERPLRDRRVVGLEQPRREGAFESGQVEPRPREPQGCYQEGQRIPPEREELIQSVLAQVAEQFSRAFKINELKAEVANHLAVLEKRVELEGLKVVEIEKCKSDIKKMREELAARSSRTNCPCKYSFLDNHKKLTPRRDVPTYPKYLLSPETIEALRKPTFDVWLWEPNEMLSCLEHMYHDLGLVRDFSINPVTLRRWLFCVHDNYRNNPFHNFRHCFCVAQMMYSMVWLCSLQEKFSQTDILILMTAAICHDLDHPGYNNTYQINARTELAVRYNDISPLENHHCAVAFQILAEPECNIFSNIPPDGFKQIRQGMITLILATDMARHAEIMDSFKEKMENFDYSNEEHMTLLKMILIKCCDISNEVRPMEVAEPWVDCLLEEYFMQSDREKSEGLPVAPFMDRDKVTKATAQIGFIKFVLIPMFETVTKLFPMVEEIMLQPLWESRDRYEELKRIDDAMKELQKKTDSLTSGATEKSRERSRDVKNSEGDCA

C[C@H](Cc1nc2c(cnn2-c2ccccc2Cl)c(=O)[nH]1)C(F)(F)F [BAY 73-6691, 1-(2-chlorophenyl)-6-[(2R)-3,3,3-trifluoro-2-methylpropyl]-1,5-dihydro-4H-pyrazolo[3,4-d]pyrimidine-4-one]
inhibition of human PDE9 activity in vitro (human PDE9): selectively inhibit
activity against other PDEs (other PDEs): only moderate activity

CCCc1nc(C)c2c(=O)[nH]c(-c3cc(S(=O)(=O)N4CCNCC4)ccc3OCC)nn12 [M1]
PDE5 inhibition potency relative to the parent drug (PDE5; parent drug vardenafil): reduced potency

C[C@@H]1CN(Cc2ncccn2)C[C@H]1c1nc2c(cnn2C2CCOCC2)c(=O)[nH]1 [PF-04447943, 6-[(3S,4S)-4-methyl-1-(pyrimidin-2-ylmethyl)pyrrolidin-3-yl]-1-(tetrahydro-2H-pyran-4-yl)-1,5-dihydro-4H-pyrazolo[3,4-d]pyrimidin-4-one]
cGMP in brain and cerebrospinal fluid (cGMP): elevates
memory in preclinical cognition models [1]: improves
synaptic plasticity [1]: enhances
decreases in dendritic spine density [2]: prevents

CCCc1nn(C)c2c(=O)[nH]c(-c3cc(S(=O)(=O)N4CCNCC4)ccc3OCC)nc12 [UK-103,320]
PDE5 inhibition potency relative to the parent drug (PDE5; parent drug sildenafil): approximately 50%

CCCc1nc(C)c2c(=O)nc(-c3cc(S(=O)(=O)N4CCN(CC)CC4)ccc3OCC)[nH]n12 [Vardenafil, 2-[2-ethoxy-5-(4-ethylpiperazin-1-yl)sulfonylphenyl]-5-methyl-7-propyl-1H-imidazo[5,1-f][1,2,4]triazin-4-one]
PDE6 inhibition (PDE6): potent PDE6 inhibitor

CCCOc1ccccc1-c1nc2[nH][nH]nc-2c(=O)n1 [Zaprinast, 5-(2-propoxyphenyl)-2,3-dihydrotriazolo[4,5-d]pyrimidin-7-one]
PDE6 versus PDE5 inhibition potency (PDE6): inhibit PDE6 more potently than PDE5

CCCc1nn(C)c2c(=O)[nH]c(-c3cc(S(=O)(=O)N4CCN(C)CC4)ccc3OCC)nc12.O=C(O)CC(O)(CC(=O)O)C(=O)O [sildenafil citrate, 1-[[3-(6,7-dihydro-1-methyl-7-oxo-3-propyl-1H-pyrazolo[4,3-d]pyrimidin-5-yl)-4-ethoxyphenyl]sulfonyl]-4-methylpiperazine citrate]
Average cyst size compared to control ([3]; 1 μg/ml, p<0.01): significantly decreased
average cyst area vs vehicle sham-treated matched control ([3]; 1000 ng/ml, p<0.01, FIG. 1): significantly reduced
Average cyst size compared to control ([3]; 2 μg/ml, p<0.01): significantly decreased
Average cyst size compared to control ([3]; 4 μg/ml, p<1 E−6): significantly decreased
average cyst area vs vehicle sham-treated matched control ([4]; 250 ng/ml, p<1.05 E−8): significantly reduced
average cyst area vs vehicle sham-treated matched control ([4]; 500 ng/ml, p<0.01): significantly reduced
dose response of cyst area reduction ([4]; 250, 500, 1000 ng/ml): No dose response
large cyst formation (cyst structures of greater than 150μ^2), frequency distribution ([4]; 250, 500, 1000 ng/ml, FIG. 2): completely inhibited

CCCc1nn(C)c2c(=O)[nH]c(-c3cc(S(=O)(=O)N4CCN(C)CC4)ccc3OCC)nc12 [sildenafil, 5[2-ethoxy-5-(4-methyl-1-piperazinyl-sulphonyl)phenyl]-1-methyl-3-n-propyl-1,6-dihydro-7H-pyrazolo[4,3-d]pyrimidin-7-one]
large cysts in photographs ([3]; 1:250 dilution of drug in vehicle from a stock, FIG. 3B): No large cysts were observed
large cysts in photographs ([3]; 1:500 dilution of drug in vehicle from a stock, FIG. 4B): No large cysts were observed
large cysts in photographs ([3]; 1:1000 dilution of drug in vehicle from a stock, FIG. 5B): No large cysts were observed
